In ChEMBL document CHEMBL1201862, “PubChem BioAssay data set” (2004):
Calls of active or inactive are those of the source.

Columns and labels:
[1] = biological target: Nuclear receptor subfamily 5 group A member 2 (Homo sapiens, UniProt O00482); type: functional, cell-based;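 also: HEK293T cells transfected with LRH-1 and a StAR promoter luciferase reporter; potency for inhibitors that lower LRH-1 driven reporter light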
[2] = biological target: Steroidogenic factor 1 (Homo sapiens, UniProt Q13285); assay: Counterscreen for inverse agonists of the liver receptor homolog-1 (LRH-1; NR5A2): Luminescence-based cell-based high throughput dose response assay to identify inverse agonists of the Steroidogenic Factor 1 Nuclear Receptor (SF1; NR5A1).; type: functional
Steroidogenic factor 1, sequence (Q13285 whole entry): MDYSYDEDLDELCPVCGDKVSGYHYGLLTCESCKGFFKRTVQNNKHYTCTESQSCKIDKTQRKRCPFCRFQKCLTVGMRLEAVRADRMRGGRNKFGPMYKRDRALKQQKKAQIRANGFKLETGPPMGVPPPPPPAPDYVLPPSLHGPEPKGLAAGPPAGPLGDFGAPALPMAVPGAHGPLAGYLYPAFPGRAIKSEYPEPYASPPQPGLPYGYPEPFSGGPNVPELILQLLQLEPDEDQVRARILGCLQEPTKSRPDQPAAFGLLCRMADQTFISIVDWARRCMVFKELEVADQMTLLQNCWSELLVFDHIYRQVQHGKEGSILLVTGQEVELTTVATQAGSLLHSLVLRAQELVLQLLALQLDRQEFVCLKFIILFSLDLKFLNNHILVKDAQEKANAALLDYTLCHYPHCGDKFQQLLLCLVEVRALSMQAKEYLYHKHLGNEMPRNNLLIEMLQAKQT

[3] = StAR promoter reporter inhibition counter-screen, dose response, counter-screen for LRH-1 inverse agonist project, cell-based, luminescence, luciferase reporter (AID 651969); type: functional
[4] = NIH/3T3 fibroblast cytotoxicity, dose response, cytotoxicity control for T. cruzi growth inhibitor project, cell-based, cherry-pick samples, set 2 (AID 651817); type: functional; details: NIH3T3
[5] = miR-122 activators in hepatoma reporter cells, dose response, cell-based, Huh7 psiCHECK-miR122, Renilla luciferase, cherry-picked (AID 651956); type: functional;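 also: huh7 hepatoma cells stably carrying a psiCHECK-2 miR-122 sensor plasmid; renilla luciferase signal reporting endogenous miR-122 activity after 48 h compound exposure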
[6] = biological target: T1, Low molecular weight phosphotyrosine protein phosphatase (Homo sapiens, UniProt P24666); type: functional; details: read-out: IC50_Mean;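 also: Dose-response confirmation assay measuring inhibition of LMPTP enzyme activity by fluorescence intensity read-out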
T1 sequence (P24666 whole entry): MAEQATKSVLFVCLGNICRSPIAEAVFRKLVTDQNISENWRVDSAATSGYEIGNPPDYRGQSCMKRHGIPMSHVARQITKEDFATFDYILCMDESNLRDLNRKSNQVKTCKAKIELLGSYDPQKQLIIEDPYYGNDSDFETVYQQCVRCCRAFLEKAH

[7] = biological target: T2, Tyrosine-protein phosphatase non-receptor type 22 (Homo sapiens, UniProt Q9Y2R2); assay: LYP phosphatase inhibition for selectivity, dose response, selectivity assay for LMPTP inhibitor project, biochemical, fluorescence, LYP catalytic domain (AID 652006); type: functional; details: read-out: IC50_Mean
T2 sequence (Q9Y2R2 whole entry): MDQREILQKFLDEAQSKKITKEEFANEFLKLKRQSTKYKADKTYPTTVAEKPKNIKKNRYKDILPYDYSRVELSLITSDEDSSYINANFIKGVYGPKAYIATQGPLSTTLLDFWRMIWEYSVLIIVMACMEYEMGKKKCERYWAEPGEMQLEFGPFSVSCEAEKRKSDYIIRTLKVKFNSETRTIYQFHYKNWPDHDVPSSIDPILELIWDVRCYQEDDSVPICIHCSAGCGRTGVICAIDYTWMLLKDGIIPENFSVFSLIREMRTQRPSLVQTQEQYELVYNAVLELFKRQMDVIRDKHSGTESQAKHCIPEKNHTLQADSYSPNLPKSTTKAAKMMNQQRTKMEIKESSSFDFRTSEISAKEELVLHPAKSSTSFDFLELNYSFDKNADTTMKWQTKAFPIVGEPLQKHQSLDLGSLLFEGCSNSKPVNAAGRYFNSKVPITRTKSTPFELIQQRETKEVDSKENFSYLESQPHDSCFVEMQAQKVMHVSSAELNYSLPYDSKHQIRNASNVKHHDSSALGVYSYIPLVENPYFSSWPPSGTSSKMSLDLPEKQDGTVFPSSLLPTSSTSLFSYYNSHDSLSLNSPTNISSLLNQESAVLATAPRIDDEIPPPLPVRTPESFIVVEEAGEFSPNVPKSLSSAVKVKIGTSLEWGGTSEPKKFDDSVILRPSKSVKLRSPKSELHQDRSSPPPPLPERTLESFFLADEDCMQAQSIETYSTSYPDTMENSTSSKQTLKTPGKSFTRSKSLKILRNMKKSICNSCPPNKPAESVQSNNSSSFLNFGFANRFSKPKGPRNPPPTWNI

[8] = A Cell-Based Confirmatory Screen for Compounds that Inhibit VEEV, TC-83 (8).; type: functional
[9] = HEK293T cytotoxicity, dose response, cytotoxicity control for miR-122 modulator project, cell-based, inhibitor set, cherry-pick, set 2 (AID 720697); type: functional
[10] = THP-1 cell cytotoxicity, dose response, cytotoxicity control for non-replicating M. tuberculosis project (AID 489025); type: functional
[11] = Vero E6 cell cytotoxicity, dose response, cytotoxicity control for non-replicating M. tuberculosis project, secondary assay (AID 492998); type: functional, VeroE6; details: Vero C1008
[12] = cells; type: functional
[13] = AlphaScreen signal interference compounds, dose response, artefact control for ARNT-TACC3 interaction inhibitor project, biochemical, luminescence, cherry-pick (AID 651705); type: functional;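 also: AlphaScreen bead proximity signal that flags compounds interfering with the detection technology; potency reflects signal decrease which marks the compound as an assay artifact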
[14] = inhibitors of intracellular T. cruzi replication, confirmation, NIH3T3 host cells, beta-gal luminescence (AID 2044); type: functional, cell-based;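 also: intracellular parasites grown in NIH/3T3 mouse fibroblasts as host cells; luminescent beta-galactosidase reporter signal from transgenic T. cruzi replicating inside host cells; inhibitors lower the luminescence signal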
[15] = cytotoxicity toward NIH3T3 fibroblasts, dose response, counter-screen, cell-based, ATP luminescence, mouse fibroblasts (AID 2010); type: functional;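 also: cells exposed to compound for about 90 hours before reading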
[16] = biological target: DNA dC->dU-editing enzyme APOBEC-3A (Homo sapiens, UniProt P31941); assay: APOBEC3A DNA deaminase inhibitors, dose response, biochemical (AID 504722); type: functional
DNA dC->dU-editing enzyme APOBEC-3A, sequence (P31941 whole entry): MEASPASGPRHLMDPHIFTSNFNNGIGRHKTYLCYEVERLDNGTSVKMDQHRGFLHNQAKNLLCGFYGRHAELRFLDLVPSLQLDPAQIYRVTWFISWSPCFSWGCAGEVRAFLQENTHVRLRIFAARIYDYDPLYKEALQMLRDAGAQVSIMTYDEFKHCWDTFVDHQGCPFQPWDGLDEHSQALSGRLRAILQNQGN

[17] = biological target: Glucose-6-phosphate 1-dehydrogenase (Homo sapiens, UniProt P11413); assay: human G6PD enzyme inhibitors, dose response, selectivity assay for P. falciparum G6PD inhibitor project, biochemical, fluorescence (AID 504792); type: functional
Glucose-6-phosphate 1-dehydrogenase, sequence (P11413 whole entry): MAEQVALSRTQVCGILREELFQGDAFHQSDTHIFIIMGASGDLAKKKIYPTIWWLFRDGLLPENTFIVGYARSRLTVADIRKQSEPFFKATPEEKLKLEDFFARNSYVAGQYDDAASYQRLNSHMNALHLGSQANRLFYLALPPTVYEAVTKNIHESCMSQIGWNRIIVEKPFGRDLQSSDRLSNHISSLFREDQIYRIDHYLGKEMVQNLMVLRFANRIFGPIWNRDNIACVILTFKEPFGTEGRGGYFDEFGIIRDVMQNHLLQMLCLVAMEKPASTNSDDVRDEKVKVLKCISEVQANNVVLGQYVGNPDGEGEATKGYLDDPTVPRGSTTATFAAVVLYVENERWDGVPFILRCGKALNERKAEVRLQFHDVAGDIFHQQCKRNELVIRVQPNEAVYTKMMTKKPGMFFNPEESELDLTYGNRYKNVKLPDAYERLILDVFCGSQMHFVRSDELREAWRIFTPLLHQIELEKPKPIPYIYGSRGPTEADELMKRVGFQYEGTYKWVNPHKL

[18] = biological target: DNA dC->dU-editing enzyme APOBEC-3G (Homo sapiens, UniProt Q9HC16); assay: Dose Response confirmation of small molecule APOBEC3G DNA Deaminase Inhibitors via a fluorescence-based single-stranded DNA deaminase assay. [Related pubchem assays (depositor defined):AID493012, AID493028]; type: functional
DNA dC->dU-editing enzyme APOBEC-3G, sequence (Q9HC16 whole entry, the tested form may be a part): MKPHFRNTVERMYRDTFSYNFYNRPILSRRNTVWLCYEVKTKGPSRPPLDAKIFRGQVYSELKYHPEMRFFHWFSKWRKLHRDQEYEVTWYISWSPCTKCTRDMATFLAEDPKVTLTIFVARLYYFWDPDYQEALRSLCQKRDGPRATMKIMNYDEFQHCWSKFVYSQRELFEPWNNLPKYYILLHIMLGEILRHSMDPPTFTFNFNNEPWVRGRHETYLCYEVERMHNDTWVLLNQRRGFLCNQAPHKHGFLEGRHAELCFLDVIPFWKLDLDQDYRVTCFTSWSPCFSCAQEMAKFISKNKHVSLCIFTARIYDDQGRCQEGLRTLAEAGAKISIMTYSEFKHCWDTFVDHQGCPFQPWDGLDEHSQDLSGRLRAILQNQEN

[19] = Fluorescence-based cell-based high throughput dose response assay for inhibitors of the interaction of nucleotide-binding oligomerization domain containing 2 (NOD2) and the receptor-interacting serine-threonine kinase 2 (RIPK2).; type: functional; details: Homo sapiens
[20] = biological target: Beta Lactamase (Pseudomonas aeruginosa, UniProt Q932Y6); assay: beta-lactamase reporter inhibitor potency, dose response, artefact control for NOD2-RIPK2 interaction inhibitor project, BLA reporter cells, FRET fluorescence (AID 651552); type: functional, cell-based
Beta Lactamase, sequence (Q932Y6 whole entry): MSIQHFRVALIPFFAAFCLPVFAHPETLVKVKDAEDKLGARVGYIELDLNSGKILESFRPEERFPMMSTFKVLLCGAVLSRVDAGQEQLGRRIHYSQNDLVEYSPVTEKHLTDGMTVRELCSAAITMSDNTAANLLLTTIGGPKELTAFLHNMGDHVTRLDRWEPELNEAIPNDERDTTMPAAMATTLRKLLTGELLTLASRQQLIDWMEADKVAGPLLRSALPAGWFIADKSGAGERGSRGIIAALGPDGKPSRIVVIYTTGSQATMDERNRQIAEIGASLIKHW

[21] = biological target: Large T antigen (Simian virus 40, UniProt P03070); type: functional, Betapolyomavirus macacae;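 also: Confirmatory-stage PubChem screen for compounds that inhibit SV40 T antigen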
Large T antigen, sequence (P03070 whole entry): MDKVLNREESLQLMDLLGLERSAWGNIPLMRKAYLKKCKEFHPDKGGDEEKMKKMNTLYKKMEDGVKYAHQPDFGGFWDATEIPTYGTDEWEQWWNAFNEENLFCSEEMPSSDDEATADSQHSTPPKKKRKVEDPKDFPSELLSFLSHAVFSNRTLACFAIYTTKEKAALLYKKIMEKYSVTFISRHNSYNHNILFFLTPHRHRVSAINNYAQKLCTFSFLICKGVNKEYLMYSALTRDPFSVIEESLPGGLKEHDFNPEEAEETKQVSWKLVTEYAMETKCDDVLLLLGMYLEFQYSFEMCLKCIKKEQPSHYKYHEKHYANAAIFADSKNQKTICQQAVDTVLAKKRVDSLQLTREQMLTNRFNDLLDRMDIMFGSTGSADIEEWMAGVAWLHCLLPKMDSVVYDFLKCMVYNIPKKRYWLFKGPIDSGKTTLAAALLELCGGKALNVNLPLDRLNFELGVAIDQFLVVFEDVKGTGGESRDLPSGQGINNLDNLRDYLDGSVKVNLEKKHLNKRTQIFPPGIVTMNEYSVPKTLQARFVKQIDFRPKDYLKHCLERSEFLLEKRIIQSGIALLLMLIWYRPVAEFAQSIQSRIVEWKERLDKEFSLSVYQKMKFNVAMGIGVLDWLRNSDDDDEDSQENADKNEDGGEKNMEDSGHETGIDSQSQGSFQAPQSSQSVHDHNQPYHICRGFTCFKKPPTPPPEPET

[22] = biological target: T3, High affinity choline transporter 1 (Homo sapiens, UniProt Q9GZV3); assay: CHT inhibitors, dose response, cell-based, 5-point CRC, membrane potential dye (AID 504840); type: functional
T3 sequence (Q9GZV3 whole entry): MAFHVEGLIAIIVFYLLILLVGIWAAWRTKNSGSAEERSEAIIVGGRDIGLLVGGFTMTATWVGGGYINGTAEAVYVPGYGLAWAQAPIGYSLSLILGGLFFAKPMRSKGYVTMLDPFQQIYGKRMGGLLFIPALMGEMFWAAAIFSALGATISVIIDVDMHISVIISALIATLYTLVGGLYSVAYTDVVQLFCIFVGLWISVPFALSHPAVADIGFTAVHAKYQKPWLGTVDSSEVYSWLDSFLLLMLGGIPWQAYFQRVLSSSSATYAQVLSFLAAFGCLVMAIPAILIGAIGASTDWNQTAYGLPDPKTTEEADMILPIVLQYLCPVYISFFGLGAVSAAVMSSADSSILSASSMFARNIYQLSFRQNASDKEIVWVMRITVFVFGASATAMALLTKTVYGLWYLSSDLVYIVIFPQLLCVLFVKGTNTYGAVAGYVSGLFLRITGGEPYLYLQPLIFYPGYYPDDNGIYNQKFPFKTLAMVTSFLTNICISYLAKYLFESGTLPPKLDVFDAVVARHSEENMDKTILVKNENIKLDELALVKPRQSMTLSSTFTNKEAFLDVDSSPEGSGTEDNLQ

[23] = HeLa cell cytotoxicity, dose response, cytotoxicity control for MgcRacGAP inhibitor project (AID 624300); type: functional
[24] = biological target: T4, Rac GTPase-activating protein 1 (Homo sapiens, UniProt Q9H0H5); assay: MgcRacGAP GTPase-activating activity inhibitors, confirmation, biochemical, ADP Hunter fluorescence, primary and confirmatory (AID 624330); type: functional
T4 sequence (Q9H0H5 whole entry): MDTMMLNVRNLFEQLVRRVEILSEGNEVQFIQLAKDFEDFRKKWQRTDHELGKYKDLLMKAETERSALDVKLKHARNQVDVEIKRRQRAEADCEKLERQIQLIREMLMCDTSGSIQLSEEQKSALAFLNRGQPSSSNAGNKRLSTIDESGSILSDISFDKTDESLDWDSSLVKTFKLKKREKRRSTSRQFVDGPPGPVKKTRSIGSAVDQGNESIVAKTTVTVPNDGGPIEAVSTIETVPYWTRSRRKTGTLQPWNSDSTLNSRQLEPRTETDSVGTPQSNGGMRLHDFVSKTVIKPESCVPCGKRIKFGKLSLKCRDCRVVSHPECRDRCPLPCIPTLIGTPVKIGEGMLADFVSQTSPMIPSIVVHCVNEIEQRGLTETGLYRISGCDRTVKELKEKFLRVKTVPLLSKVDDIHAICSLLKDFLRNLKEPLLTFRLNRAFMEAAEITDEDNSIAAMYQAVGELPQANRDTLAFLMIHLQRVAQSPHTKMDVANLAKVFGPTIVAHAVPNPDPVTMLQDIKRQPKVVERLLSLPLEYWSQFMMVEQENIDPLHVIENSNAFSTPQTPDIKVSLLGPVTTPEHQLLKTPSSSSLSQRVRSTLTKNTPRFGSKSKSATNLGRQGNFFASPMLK

[25] = biological target: Paired box protein Pax-8 (Homo sapiens, UniProt Q06710); assay: inhibitors of PAX8-driven TPO luciferase reporter, dose response, RMG-I cells, cherry-pick (AID 687027); type: functional, cell-based;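 also: luciferase reporter driven by Pax8 target thyroperoxidase promoter measured by SteadyGlo luminescence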
Paired box protein Pax-8, sequence (Q06710 whole entry): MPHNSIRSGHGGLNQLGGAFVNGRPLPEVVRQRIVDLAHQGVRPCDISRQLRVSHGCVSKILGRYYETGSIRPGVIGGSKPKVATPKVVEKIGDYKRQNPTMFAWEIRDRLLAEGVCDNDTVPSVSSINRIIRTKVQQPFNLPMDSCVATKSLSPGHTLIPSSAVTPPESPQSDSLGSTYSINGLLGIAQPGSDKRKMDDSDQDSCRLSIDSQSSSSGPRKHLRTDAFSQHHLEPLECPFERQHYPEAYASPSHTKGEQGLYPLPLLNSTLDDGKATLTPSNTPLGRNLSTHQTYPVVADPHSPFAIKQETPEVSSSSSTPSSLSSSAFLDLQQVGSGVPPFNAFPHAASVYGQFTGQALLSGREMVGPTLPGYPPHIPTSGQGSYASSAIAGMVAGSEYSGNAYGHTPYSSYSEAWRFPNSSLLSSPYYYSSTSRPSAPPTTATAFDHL

[26] = inhibitors of CMV-promoter luciferase reporter, dose response, counter-screen for Pax8 inhibitor project, cell-based, HEK293, luminescence, dry powder (AID 743020); type: functional
[27] = NIH:OVCAR-3 ovarian cancer cell cytotoxicity, dose response, PAX8 inhibitor project, plate reader, dry powder samples (AID 743044); type: functional, cell-based
[28] = biological target: Mu-type opioid receptor (Homo sapiens, UniProt P35372); type: functional, cell-based;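 also: U2OS cells with beta-arrestin recruitment to OPRM1 by beta-gal complementation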
Mu-type opioid receptor, sequence (P35372 whole entry): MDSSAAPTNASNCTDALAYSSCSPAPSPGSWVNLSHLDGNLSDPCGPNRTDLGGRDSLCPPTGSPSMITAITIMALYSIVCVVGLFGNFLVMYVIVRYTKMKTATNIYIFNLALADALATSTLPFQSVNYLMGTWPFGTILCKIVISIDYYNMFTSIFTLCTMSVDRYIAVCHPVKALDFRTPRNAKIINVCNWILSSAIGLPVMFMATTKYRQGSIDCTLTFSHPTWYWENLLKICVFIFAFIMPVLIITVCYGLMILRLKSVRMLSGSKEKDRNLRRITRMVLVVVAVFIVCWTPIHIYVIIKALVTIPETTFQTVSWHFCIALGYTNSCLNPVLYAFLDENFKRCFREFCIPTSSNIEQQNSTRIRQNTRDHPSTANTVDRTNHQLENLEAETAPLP

[29] = biological target: 5-hydroxytryptamine receptor 2A (Mus musculus, UniProt P35363); type: functional, cell-based;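 also: CHO-K1 cells with tagged receptor and beta-arrestin; agonist potency measured as compound-induced activation of the receptor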
5-hydroxytryptamine receptor 2A, sequence (P35363 whole entry): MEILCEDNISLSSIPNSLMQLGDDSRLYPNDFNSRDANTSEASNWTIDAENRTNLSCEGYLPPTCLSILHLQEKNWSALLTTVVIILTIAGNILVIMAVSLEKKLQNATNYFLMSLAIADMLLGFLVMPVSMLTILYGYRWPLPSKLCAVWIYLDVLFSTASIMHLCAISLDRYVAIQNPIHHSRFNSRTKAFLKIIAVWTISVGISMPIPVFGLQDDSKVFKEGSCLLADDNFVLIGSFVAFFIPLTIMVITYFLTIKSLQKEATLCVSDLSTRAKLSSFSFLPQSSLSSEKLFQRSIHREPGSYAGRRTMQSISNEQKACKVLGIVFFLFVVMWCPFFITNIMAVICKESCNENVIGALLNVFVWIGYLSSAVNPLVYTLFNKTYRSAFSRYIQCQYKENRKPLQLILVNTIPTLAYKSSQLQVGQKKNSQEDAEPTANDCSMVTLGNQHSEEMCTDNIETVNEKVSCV

[30] = human group III sPLA2 inhibitors, dose response, biochemical, QFRET, IC50 (AID 743457);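 also: green fluorescence rise as the enzyme cleaves BODIPY PC-A2 in liposomes; potency for inhibition of the enzyme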
[31] = biological target: Cytochrome P450 2D6 (Homo sapiens, UniProt P10635);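 also: CYP2D6 member of a cytochrome P450 panel assay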
Cytochrome P450 2D6, sequence (P10635 whole entry): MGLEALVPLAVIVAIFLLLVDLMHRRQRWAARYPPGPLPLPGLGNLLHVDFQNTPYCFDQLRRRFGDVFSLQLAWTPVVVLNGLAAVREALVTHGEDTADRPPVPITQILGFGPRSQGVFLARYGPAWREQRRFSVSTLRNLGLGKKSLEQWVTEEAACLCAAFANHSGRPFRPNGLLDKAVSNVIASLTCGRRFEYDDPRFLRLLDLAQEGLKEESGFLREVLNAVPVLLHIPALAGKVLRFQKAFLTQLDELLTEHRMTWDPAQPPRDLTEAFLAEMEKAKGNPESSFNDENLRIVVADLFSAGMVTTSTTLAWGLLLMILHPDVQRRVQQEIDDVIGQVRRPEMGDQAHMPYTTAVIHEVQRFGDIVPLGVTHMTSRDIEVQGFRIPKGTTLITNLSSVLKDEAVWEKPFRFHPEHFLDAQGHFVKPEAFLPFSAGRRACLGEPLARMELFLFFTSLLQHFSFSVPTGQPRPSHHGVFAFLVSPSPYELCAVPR

[32] = biological target: T5, Cytochrome P450 1A2 (Homo sapiens, UniProt P05177);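 also: PubChem cytochrome P450 panel assay, CYP1A2 panel member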
T5 sequence (P05177 whole entry): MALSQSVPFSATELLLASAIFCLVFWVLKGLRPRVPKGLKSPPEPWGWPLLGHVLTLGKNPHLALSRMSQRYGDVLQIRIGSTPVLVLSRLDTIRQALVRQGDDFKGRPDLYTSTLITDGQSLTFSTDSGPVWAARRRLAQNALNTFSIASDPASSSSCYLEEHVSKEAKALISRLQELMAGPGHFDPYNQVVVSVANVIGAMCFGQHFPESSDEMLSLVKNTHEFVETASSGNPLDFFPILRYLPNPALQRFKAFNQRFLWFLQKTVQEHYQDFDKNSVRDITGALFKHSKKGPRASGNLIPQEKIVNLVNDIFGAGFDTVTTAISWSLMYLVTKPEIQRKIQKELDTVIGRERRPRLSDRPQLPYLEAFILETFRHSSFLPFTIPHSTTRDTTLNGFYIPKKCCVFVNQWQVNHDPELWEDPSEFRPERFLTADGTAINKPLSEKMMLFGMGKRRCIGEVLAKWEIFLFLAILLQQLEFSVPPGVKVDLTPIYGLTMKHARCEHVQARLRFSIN

[33] = inhibitors of TNFa-stimulated NF-kB luciferase reporter, dose response, selectivity assay for EBV LMP1 NF-kB inhibitor project, HEK293 LMP1 reporter cells, dry powder, set 2 (AID 624369); type: functional

Nuclear receptor subfamily 5 group A member 2, sequence (O00482 whole entry): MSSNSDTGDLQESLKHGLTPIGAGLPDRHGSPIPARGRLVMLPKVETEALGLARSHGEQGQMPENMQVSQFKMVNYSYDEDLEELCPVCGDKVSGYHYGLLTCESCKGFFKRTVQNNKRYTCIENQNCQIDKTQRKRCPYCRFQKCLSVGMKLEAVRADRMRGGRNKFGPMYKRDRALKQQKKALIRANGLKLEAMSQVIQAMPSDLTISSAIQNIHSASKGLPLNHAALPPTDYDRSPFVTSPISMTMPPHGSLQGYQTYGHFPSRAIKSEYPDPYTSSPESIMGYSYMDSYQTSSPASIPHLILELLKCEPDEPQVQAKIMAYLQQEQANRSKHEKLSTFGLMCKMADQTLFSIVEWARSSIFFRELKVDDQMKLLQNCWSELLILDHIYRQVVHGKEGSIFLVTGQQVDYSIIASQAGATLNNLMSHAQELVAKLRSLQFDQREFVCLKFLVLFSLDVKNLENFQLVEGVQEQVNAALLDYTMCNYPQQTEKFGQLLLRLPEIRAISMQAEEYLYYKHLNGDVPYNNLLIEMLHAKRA

CC(=O)c1ccc(OC(C)C(=O)OCC(=O)NCCc2ccccc2)cc1 (stereo not drawn)
IC50 [1]: 9.39 µM (active) | IC50 [2]: 8.19 µM (active) | IC50 [3]: 35.9 µM (inactive)

C[C@H]1CN([C@@H](C)CO)C(=O)c2cccc(NC(=O)NC3CCCCC3)c2O[C@H]1CN(C)S(=O)(=O)c1ccc(F)cc1
AC50 [4]: 28.7 µM (active)

CCCNC(=O)C[C@H]1CC[C@@H]2[C@@H](COc3ccc(NC(=O)c4ccc(C(F)(F)F)cc4)cc3C(=O)N2C)O1
AC50 [5]: 26.9 µM (active)

CC1C(=O)N(Cc2cn(Cc3ccco3)nn2)CCS(=O)(=O)N1Cc1ccc(-c2cccnc2)cc1 (stereo not drawn)
IC50 [6]: 15.2 µM (active) | IC50 [7]: 26.6 µM (inactive)

CCN1CCN(Cc2nc3ccc(C#N)cc3c(=O)n2-c2ccccc2)CC1
IC50 [8]: 1.14 µM (active)

O=C(Nc1ccccc1)N1C[C@@H]2[C@H](c3ccccc31)[C@H](CO)N2Cc1cocn1
AC50 [9]: 9.02 µM (active)

c1ccc(-c2nc3ccccn3c2NC2CCCC2)nc1
CC50 [10]: 28.8 µM (active) | CC50 [11]: > 20 µM (active) | IC50 [12]: 4.27 µM (active) | AC50 [13]: 87.6 µM (active)

Cc1cc(C)c2c(=O)n(CC(=O)Nc3ccc(Cl)cc3)sc2n1
EC50 [14]: 1.39 µM (active) | EC50 [15]: > 30 µM (not active) | IC50 [16]: > 100 µM (inactive) | IC50 [17]: 20.7 µM (inactive) | IC50 [18]: 3.35 µM (active) | IC50 [19]: 9.56 µM (active) | IC50 [20]: 23.6 µM (inactive)

COc1cc(/C=C2/C(=O)ON=C2c2ccccc2)ccc1O
IC50 [21]: 9.98 µM (active) | IC50 [22]: 9.6 µM (active) | CC50 [23]: 100 µM (active) | IC50 [24]: 100 µM (active)

CS(=O)(=O)Nc1ccc2c(c1)[C@@H]1C[C@H](CC(=O)NCc3ccc(Oc4ccccc4)cc3)O[C@@H](CO)[C@@H]1O2
AC50 [25]: 6.4 µM (active) | AC50 [26]: 39.7 µM (active) | AC50 [27]: 20.7 µM (active)

O=C(CSc1ccc2ccccc2c1)NCCc1ccc(O)c(O)c1
EC50 [28]: 92.5 µM (inactive) | EC50 [29]: 2.67 µM (active)

O=C(CSCc1ccccc1Cl)NNC(=S)Nc1ccccc1
IC50 [30]: > 122 µM (inactive) | AC50 [31]: 14.1 µM (inconclusive) | AC50 [32]: 15.8 µM (inconclusive)

CCCNC(=O)c1cc2c(c(-c3cccc(-c4cccc(F)c4)c3)n1)[C@H](CCO)N([S@@+]([O-])C(C)(C)C)C2
AbsAC35 [33]: 250.06 µM
